Reference: patent US12552834B2, “Selective MENA binding peptides” (MASSACHUSETTS INSTITUTE OF TECHNOLOGY, priority 2021, dated 2026)

Key:
[1] = system: EVL Y63C, I26A and VASP W89Y, L15V; experiment: BLI, binding to EVL and VASP hydrophobic core mutants
VASP or EVL EVH1 domains = experiment: BLI, paralog selectivity: ENAH versus VASP or EVL EVH1 domains; format: binding
Description: Next, we examined whether residues flanking FP4 (SEQ ID NO:46) SLiMs impact paralog specificity.
All BLI experiments were performed with 2 replicates on an Octet Red96 instrument (ForteBio). Biotinylated, 6×-His-Sumo-peptide fusions purified in small scale were diluted into BLI buffer (PBS pH 7.4, 1% BSA, 0.1% Tween-20, 1 mM DTT) and immobilized onto streptavidin-coated tips (ForteBio) until loading reached a response level between 0.5-0.6 nm. The loaded tips were immersed in a solution of ENAH EVH1 domain at a relevant dilution series in BLI buffer at an orbital shake speed of 1000 rpm and run until the binding signal plateaued. ENAH-bound tips were subsequently placed into BLI buffer only for dissociation and run until the binding signal plateaued. KD values were obtained through steady state analysis. Briefly, the data were corrected for background by subtracting the signal obtained when doing the same experiment using a biotinylated, 6×-His Sumo instead of an immobilized ENAH-binding peptide. The association phases were then fit to a one-phase binding model in Prism and the equilibrium steady-state binding signal values from that fit were plotted against ENAH concentration and fit to a single-site specific binding model in Prism to obtain dissociation constants. Errors reported are the standard deviation of two replicates. […]

ENAH EVH1 domain = molecular target: T1, ENAH EVH1 domain (Homo sapiens, UniProt Q8N8S7); experiment: Biolayer interferometry (BLI), SUMO-peptide fusions binding monomeric ENAH EVH1 domain WT
T1 construct: places a 6×-His and TEV cleavage tag N-terminal to the EVH1 domain; 6×-His + TEV cleavage site (N, cleaved yes); made in house; host or cells: E. coli Rosetta2(DE3)
T1 sequence (Q8N8S7 with tags, fused parts or gaps): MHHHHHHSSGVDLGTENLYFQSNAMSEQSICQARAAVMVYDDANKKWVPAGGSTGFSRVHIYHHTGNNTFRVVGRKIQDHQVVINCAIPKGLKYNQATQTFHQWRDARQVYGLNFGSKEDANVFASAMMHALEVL
Description: All BLI experiments were performed with 2 replicates on an Octet Red96 instrument (ForteBio). […] The loaded tips were immersed in a solution of ENAH EVH1 domain at a relevant dilution series in BLI buffer at an orbital shake speed of 1000 rpm and run until the binding signal plateaued. ENAH-bound tips were subsequently placed into BLI buffer only for dissociation and run until the binding signal plateaued. KD values were obtained through steady state analysis. […] The association phases were then fit to a one-phase binding model in Prism and the equilibrium steady-state binding signal values from that fit were plotted against ENAH concentration and fit to a single-site specific binding model in Prism to obtain dissociation constants. Errors reported are the standard deviation of two replicates.
Monomeric ENAH, EVL, or VASP EVH1 domains for use in BLI and ITC experiments, or ENAH EVH1-peptide fusions for crystallography was cloned into a pMCSG7 vector (gift from Frank Gertler, MIT), which places a 6×-His and TEV cleavage tag N-terminal to the EVH1 domain. These constructs were transformed into Rosetta2(DE3) cells and grown in 2×YT media supplemented with 100 μg/mL ampicillin. Cells were grown while shaking at 37° C. to an O.D. 600 of 0.5-0.7, and then cooled on ice for at least 20 minutes. They were then induced with 0.5 mM IPTG and grown while shaking at 18° C. overnight. Induced cultures were resuspended in 25 mL of wash buffer (20 mM Hepes pH 7.6, 500 mM NaCl, 20 mM imidazole) and frozen at −80° C. overnight. The next day, cultures were sonicated, spun down, and applied to Ni-NTA acid agarose resin equilibrated with wash buffer, and washed as described above. Samples were eluted in 10 mL elution buffer (20 mM Hepes pH 7.6, 500 mM NaCl, […]). TEV protease was added to the elution at a ratio of 1 mg TEV:50 mg tagged protein along with 1 mM DTT. This mixture was dialyzed against TEV cleavage buffer (50 mM Hepes pH 8.0, 300 mM NaCl, 5 mM DTT, 1 mM EDTA) at 4° C. overnight and then applied over Ni-NTA acid agarose resin equilibrated with wash buffer. The column was washed with 2×8 mL of wash buffer, and the resulting flow-through and washes were pooled, concentrated, and applied to an S75 26/60 column equilibrated in gel filtration buffer (20 mM Hepes pH 7.6, 150 mM NaCl, 1 mM DTT, 1% glycerol). Purity was verified by SDS-PAGE and combined fractions were concentrated and flash frozen at −80° C.
Rosetta2(DE3) cells (Novagen) were transformed with pDW363 vector encoding 6×-His-SUMO-peptide fusions and grown in 20 mL of LB+100 μg/mL Ampicillin+0.050 mM D-(+)-Biotin dissolved in DMSO for in vivo biotinylation. Cells were grown to an OD of 0.5-0.7 with 1 mM IPTG and induced for 4-6 hours at 37° C. Pellets were spun down and frozen and −80° C. for at least 2 hours. These pellets were then thawed and resuspended in B-PER reagent (ThermoFisher) at 4 mL/gram of pellet with 0.2 mM PMSF. This suspension was shaken at 25° C. for 10-15 minutes, and then spun down at 15,000 g for 10 minutes. The supernatant was applied to 250 μL of Ni-NTA acid agarose resin equilibrated in 20 mM Tris pH 8.0, 500 mM NaCl, 20 mM Imidazole (Buffer A), and then washed 3 times with 1 mL of this buffer. Peptides were eluted in 1.8 mL of 20 mM Tris pH 8.0, 500 mM NaCl, 300 mM imidazole to use in BLI assays.

tighter binding than PCARE B (ENAH EVH1 domain) [fold]	slower dissociation than dual-motif peptide LPP (ENAH EVH1 domain; BLI off-rate) [fold]	SMILES	binding to EVL Y63C, I26A and VASP W89Y, L15V, in words [1]	preference / selectivity for ENAH over VASP or EVL EVH1 domains (VASP or EVL EVH1 domains)
		CSCC[C@H](NC(=O)[C@H](CC(C)C)NC(=O)[C@@H](NC(=O)[C@H](CCC(=O)O)NC(=O)[C@H](CCSC)NC(=O)[C@@H]1CCCN1C(=O)[C@@H]1CCCN1C(=O)[C@@H]1CCCN1C(=O)[C@@H]1CCCN1C(=O)[C@H](CC(C)C)NC(=O)[C@H](Cc1c[nH]cn1)NC(=O)[C@H](CCC(=O)O)NC(=O)[C@H](CC(C)C)NC(=O)[C@@H](N)CC(N)=O)C(C)C)C(=O)N[C@@H](CC(=O)O)C(=O)N[C@@H](CCCCN)C(=O)N[C@@H](CO)C(=O)N[C@@H](Cc1ccccc1)C(=O)N[C@@H](C)C(=O)N[C@@H](CO)C(=O)N[C@@H](CC(C)C)C(=O)N[C@@H](CCC(=O)O)C(=O)N[C@@H](CO)C(=O)O [PCARE B]	not sufficient to confer high affinity of binding	
~7	~100	CSCC[C@H](NC(=O)[C@H](CC(C)C)NC(=O)[C@@H](NC(=O)[C@H](CCC(=O)O)NC(=O)[C@H](CCSC)NC(=O)[C@@H]1CCCN1C(=O)[C@@H]1CCCN1C(=O)[C@@H]1CCCN1C(=O)[C@@H]1CCCN1C(=O)[C@H](CC(C)C)NC(=O)[C@H](Cc1c[nH]cn1)NC(=O)[C@H](CCC(=O)O)NC(=O)[C@H](CC(C)C)NC(=O)[C@@H](N)CC(N)=O)C(C)C)C(=O)N[C@@H](CC(=O)O)C(=O)N[C@@H](CCCCN)C(=O)N[C@@H](CO)C(=O)N[C@@H](Cc1ccccc1)C(=O)N[C@@H](C)C(=O)N[C@@H](CO)C(=O)N[C@@H](CC(C)C)C(=O)N[C@@H](CCC(=O)O)C(=O)N[C@@H](CO)C(=O)NCC(=O)N[C@@H](CO)C(=O)NCC(=O)N[C@@H](CO)C(=O)N1CCC[C@H]1C(=O)N1CCC[C@H]1C(=O)N1CCC[C@H]1C(=O)N1CCC[C@H]1C(=O)N1CCC[C@H]1C(=O)N[C@@H](Cc1ccccc1)C(=O)O [PCARE-Dual]		400-600 fold
